According to patent US20230345975A1, “COMPOSITIONS AND METHODS OF PRESERVING MEAT SUBSTITUTES” (Wisconsin Alumni Research Foundation, priority 2016, published 2023):
Entries after “also recorded” stand apart in the source; their conditions may differ. Like-named read-outs stand apart in the source and are kept apart here. Each block holds one molecule with its values, some of them ahead of it.

How the values were obtained:
[1] = biological target: plant Hb (soybean hemoglobin; Lba) in meat analog (Glycine max, UniProt P02238); assay: Color stability of meat analog during refrigerated light display
plant Hb (soybean hemoglobin; Lba) in meat analog, sequence (P02238 whole entry): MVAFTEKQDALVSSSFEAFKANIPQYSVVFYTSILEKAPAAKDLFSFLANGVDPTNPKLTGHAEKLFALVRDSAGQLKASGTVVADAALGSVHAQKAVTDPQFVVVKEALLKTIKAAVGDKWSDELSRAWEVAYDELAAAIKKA
Procedure: FIG. 1—Color stability of meat analog. Treatments: Water (W); 2.5 mmol/kg tissue Niacin (NA). Packaging: High oxygen package (80% O2, 20% CO2). Water content: 3% water capacity. Days under light (˜300 ft): 4 days under light display at 1-3° C.
FIG. 3—Effect of high oxygen during packaging. […] W-water added. All samples were stored at 1-3° C. during light display (300 foot candles).
The niacin can also be added to the solid plant protein/plant fat matrix already containing the added plant Hb. There is approximately 150 μmol of plant heme/kg meat analog. Therefore, a targeted final concentration of niacin would be 150 μmol/kg meat analog, which is equivalent to 18.5 mg niacin per kg meat analog.
Niacin is added to the meat analog already containing the plant Hb (soybean hemoglobin; Lba) and the product is stored under lights in high oxygen packaging during 4 days of refrigerated storage.

[2] = cited from earlier work
soybean Hb (Lba) = soybean Hb (Lba) (Glycine max, UniProt P02238); assay: Redness (a-value) of Lba solutions after exposure to 35 fc of light for 4 days; settings: for Redness (a-value) at day 4: 35 fc light, 4 days, main effect over pH
soybean Hb (Lba), sequence (P02238 whole entry): as above
Procedure: FIG. 2—Effect of pH and different molar ratios of niacin to soybean Hb on the redness of Lba solutions. Measurement after exposure to 35 fc of light for 4 days
100 grams of meat analog containing a 3:1 dose of niacin would provide 5.9 mg niacin; a 6:1 dose would provide 11.8 mg niacin.

[3] = cited from earlier work; remark: listed apart in the source

Molecule: O=C1O[C@H]([C@@H](O)CO)C(O)=C1O [Ascorbic acid]
color stabilization of meat analog ([1]; high oxygen packaging 80% O2/20% CO2, light display 300 foot candles, 1-3° C.): did not stabilize color

Molecule: N[C@@H](Cc1c[nH]cn1)C(=O)O [histidine, Histidine]
pKa ([2]; buffer): ~6
pKa of the conjugate acid (protonated form) of the imidazole side chain [2]: approximately 6.0

time for which meat analog maintained color ([1]; storage entirely in 80% O2/20% CO2, light display 300 foot candles, 1-3° C.): ≤ 11 days
ability to stabilize color in meat analog after change of packaging ([1]; transferred from 80% O2/20% CO2 at day 4 to air-permeable overwrap, assessed at day 8): lost
stabilization of red color of Lba solution versus control with no niacin (soybean Hb (Lba); 1:1 (niacin:Lba) ratio): stabilized red color better than control
Redness (a-value) at day 4 (soybean Hb (Lba); niacin:Lba molar ratio 1:1): 4.10c
Redness (a-value) at day 4 (soybean Hb (Lba); niacin:Lba molar ratio 3:1): 5.35b
Redness (a-value) at day 4 (soybean Hb (Lba); niacin:Lba molar ratio 6:1): 5.79a
Molecule: O=C(O)c1cccnc1 [niacin, nicotinic acid]
color retention of meat analog ([1]; 2.5 mmol/kg niacin, high oxygen package (80% O2, 20% CO2), 4 days under light display at 1-3° C.): retains a superior color; also recorded: retain a pink color for four days
Tolerable Upper Intake Level (UL) ([3]; European Food Safety Authority): 10 mg/day
Tolerable Upper Intake Level (UL) ([3]; Food and Nutrition Board of the U.S. Institute of Medicine): 35 mg/day

Molecule: Imidazole
pKa as an acid ([2]; acidic proton on N-1): 14.5
pKa of the conjugate acid (pKBH+) ([2]; as a base, basic site N-3): approximately 7
